Experimental data published in publication PMC12339328, “Therapeutic effect and mechanism of gigantol on hyperuricemia” (Frontiers in Endocrinology, 2025).
Several values for one entry are separate records, joined by “and”; a condition that tells them apart may be missing. Equal entries are not always repeated. Entries after “also recorded” stand apart in the source; their conditions may differ. Where two headings read alike, the source gives them in different places.

Columns and labels:
[1] = target: T1, XOD (Mus musculus, UniProt Q00519); assay type: in vivo; conditions: HUA mice, vs model group
T1 construct: XOD activity in the supernatant of the liver tissues was measured; from tissue; host or cells: liver of male KM mice (hyperuricemia model, potassium oxonate)
T1 sequence (Q00519 whole entry): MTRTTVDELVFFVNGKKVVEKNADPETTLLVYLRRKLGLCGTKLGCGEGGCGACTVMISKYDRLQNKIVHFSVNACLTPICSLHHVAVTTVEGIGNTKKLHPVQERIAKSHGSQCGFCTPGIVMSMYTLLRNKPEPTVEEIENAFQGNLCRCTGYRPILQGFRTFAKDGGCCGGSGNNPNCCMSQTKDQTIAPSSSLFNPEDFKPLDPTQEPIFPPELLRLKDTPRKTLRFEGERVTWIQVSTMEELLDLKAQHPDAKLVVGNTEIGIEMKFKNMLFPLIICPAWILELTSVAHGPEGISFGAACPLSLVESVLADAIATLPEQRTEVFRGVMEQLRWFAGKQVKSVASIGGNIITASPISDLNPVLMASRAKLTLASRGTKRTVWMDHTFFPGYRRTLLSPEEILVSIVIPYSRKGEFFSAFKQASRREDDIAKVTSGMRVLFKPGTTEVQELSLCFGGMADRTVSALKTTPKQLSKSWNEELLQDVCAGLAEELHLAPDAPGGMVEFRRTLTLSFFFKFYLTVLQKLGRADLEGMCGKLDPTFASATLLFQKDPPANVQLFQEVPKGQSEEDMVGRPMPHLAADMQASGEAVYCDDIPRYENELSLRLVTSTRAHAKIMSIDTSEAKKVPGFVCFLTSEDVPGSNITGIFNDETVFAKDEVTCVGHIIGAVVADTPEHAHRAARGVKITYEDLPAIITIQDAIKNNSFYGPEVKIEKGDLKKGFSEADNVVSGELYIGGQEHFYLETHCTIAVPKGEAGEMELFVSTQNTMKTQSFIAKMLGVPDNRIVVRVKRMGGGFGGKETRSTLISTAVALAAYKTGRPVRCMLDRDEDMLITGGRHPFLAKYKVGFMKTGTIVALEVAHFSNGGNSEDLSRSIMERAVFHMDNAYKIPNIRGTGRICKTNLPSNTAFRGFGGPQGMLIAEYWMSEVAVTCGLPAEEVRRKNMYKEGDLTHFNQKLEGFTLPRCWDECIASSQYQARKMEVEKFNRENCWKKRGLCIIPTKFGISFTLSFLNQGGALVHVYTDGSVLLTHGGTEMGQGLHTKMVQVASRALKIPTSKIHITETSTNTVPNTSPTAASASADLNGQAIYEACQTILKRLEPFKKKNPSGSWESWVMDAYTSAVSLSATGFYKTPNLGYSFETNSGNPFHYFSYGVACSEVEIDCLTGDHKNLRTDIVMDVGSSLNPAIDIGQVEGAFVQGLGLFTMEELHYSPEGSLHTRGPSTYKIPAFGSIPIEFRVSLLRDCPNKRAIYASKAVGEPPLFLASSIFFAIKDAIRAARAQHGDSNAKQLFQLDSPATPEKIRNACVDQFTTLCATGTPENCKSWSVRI

[2] = tested on: NLRP3; assay: NLRP3 content in serum and kidney of HUA mice (ELISA); assay type: in vivo; conditions: gigantol low, medium, high dose intragastric, vs model group
Method: (§1) Blood obtained from mice in each group was centrifuged at 3,000 r/min for 15 min in a low-temperature high-speed centrifuge. Then, the serum was separated, and the levels of UA, CRE, and BUN in the serum were measured by the kits. The levels of TNF-α, IL-1β, IL-6, and NLRP3 in serum were detected by ELISA kits. Liver and kidney tissues were homogenized by adding ice-cold saline, and homogenates were centrifuged at 12,000 r/min for 10 min. XOD activity in the supernatant of the liver tissues was measured, and the levels of TNF-α, IL-1β, IL-6, and NLRP3 in the supernatant of the kidney tissues were measures by ELISA kits.

[3] = tested on: IL-1β; assay: IL-1β content in serum and kidney of HUA mice (ELISA); assay type: in vivo; conditions: gigantol low, medium, high dose intragastric, vs model group
Method: as §1

[4] = tested on: TNF-α; assay: TNF-α level in serum and kidney of HUA mice (ELISA); assay type: in vivo; conditions: HUA mice treated with gigantol; vs model group; p < 0.01
Method: as §1

[5] = tested on: IL-6; assay: IL-6 level in serum and kidney of HUA mice (ELISA); assay type: in vivo; conditions: HUA mice treated with gigantol; vs model group; p < 0.01
Method: as §1

[6] = tested on: ASC; assay: ASC protein expression in kidney of HUA mice (Western blot); assay type: in vivo; conditions: gigantol high-dose group (20 mg/kg), vs model group, p < 0.001
[7] = tested on: NLRP3; assay: NLRP3 protein expression in kidney of HUA mice (Western blot); assay type: in vivo; conditions: gigantol high-dose group (20 mg/kg), vs model group, p < 0.01
[8] = tested on: caspase-1; assay: Caspase-1 protein expression in kidney of HUA mice (Western blot); assay type: in vivo; conditions: gigantol high-dose group (20 mg/kg), vs model group, p < 0.001
[9] = tested on: renal tissue in mice with HUA; assay: Renal histopathology of HUA mice (HE staining); assay type: in vivo; conditions: 200×, gigantol-treated groups
Excerpt: The kidney and liver tissues were fixed with 4% paraformaldehyde solution. After paraffin embedding and sectioning, the paraffin on the slide was removed with xylene and soaked in different concentrations of ethanol and deionized water. The liver and kidney tissues were stained according to the HE staining procedure, and then the morphology of the kidney tissues and liver tissues was observed under the microscope.

[10] = tested on: HK-2 cells; assay: UA level in HK-2 HUA cell model; assay type: cell-based, human; conditions: adenosine + XOD induced; gigantol 25, 50, 100 μmol/L; p < 0.001
[11] = tested on: NLRP3; assay: NLRP3 content in HK-2 HUA cell model (ELISA); assay type: cell-based, human; conditions: gigantol 25, 50, 100 µmol/L, dose-dependent
Method: (§2) HK-2 cells were treated as described above. The supernatant of the medium was collected, and the levels of proinflammatory cytokines (TNF-α, IL-6, and IL-1β) and the NLRP3 inflammasome component in the supernatant were detected using commercially available ELISA kits according to the manufacturers’ protocols.

[12] = tested on: IL-1β; assay: IL-1β content in HK-2 HUA cell model (ELISA); assay type: cell-based, human; conditions: only the high-dose group showing a downward trend (p < 0.01)
Method: as §2

[13] = tested on: TNF-α; assay: TNF-α level in HK-2 HUA cell model (ELISA); assay type: cell-based, human; conditions: adenosine and XOD induction; gigantol 25, 50, 100 μmol/L
Method: as §2

[14] = tested on: IL-6; assay: IL-6 level in HK-2 HUA cell model (ELISA); assay type: cell-based, human; conditions: adenosine and XOD induction; gigantol 25, 50, 100 μmol/L
Method: as §2

[15] = tested on: XOD; conditions: HUA cell model; gigantol 25, 50, 100 μmol/L, dose-dependent; vs model; p < 0.05, p < 0.001, p < 0.001
[16] = tested on: XOD; conditions: for xod / β (reference protein) ratio / xod protein expression, band value: AML12, replicates 1-3; for XOD protein expression in AML12 cells: HUA cell model, gigantol 25, 50, 100 µmol/L, vs model group, p < 0.001
[17] = rat, in vivo
Method: Whole blood was taken into heparinized tubes at predefined time points (2, 5, 10, 20, and 30 min, and 1, 2, 4, 6, 8, and 12 h) after administration, and plasma was separated by centrifugation and stored at −20°C until testing. […] Whole blood was taken into heparinized tubes at predefined time points (2, 5, 10, 20, and 30 min, and 1, 2, 4, 6, 8, and 12 h) after administration, and plasma was separated by centrifugation and stored at −20°C until testing. […] Pharmacokinetic parameters were calculated by using the pharmacokinetics software WinNonlin 8.1.

[18] = tested on: ASC; assay: ASC protein expression in HK-2 cells (Western blot); conditions: for asc / β (reference protein) ratio / asc protein expression, band value: HK-2, replicates 1-3; for ASC protein level in HK-2 cells: HUA cell model
[19] = tested on: OAT3; assay: OAT3 protein expression in HK-2 cells (Western blot); conditions: for OAT3 / β (reference protein) ratio / OAT3 protein expression, band value: HK-2, replicates 1-3
[20] = tested on: NLRP3; assay: NLRP3 protein expression in HK-2 cells (Western blot); conditions: for NLRP3 / β (reference protein) ratio / NLRP3 protein expression, band value: HK-2, replicates 1-3; for NLRP3 protein level in HK-2 cells: HUA cell model
[21] = tested on: Caspase-1; assay: Caspase-1 protein expression in HK-2 cells (Western blot); conditions: for CASPASE / β (reference protein) ratio / CASPASE protein expression, band value: HK-2, replicates 1-3
[22] = tested on: OAT1; assay: OAT1 protein expression in kidney of HUA mice (Western blot); conditions: gigantol medium-dose and high-dose groups (10, 20 mg/kg), vs model group, p < 0.01
[23] = tested on: OAT3; assay: OAT3 protein expression in kidney of HUA mice (Western blot); conditions: vs model group
[24] = 50 and 100 µmol/L gigantol, vs model group
[25] = gigantol intervention, especially high-dose group (p < 0.001), vs model

## 5-[2-(3-hydroxy-5-methoxyphenyl) ethyl]-2-methoxyphenol [gigantol]
[1]; gigantol high dose (20 mg/kg), p < 0.001
  XOD activity in mice liver: inhibited
[1]; gigantol low and middle doses (5, 10 mg/kg), p > 0.05
  XOD activity in mice liver: no significant difference
[2]
  NLRP3 level in kidney: decreased
  NLRP3 level in serum: decreased
[3]
  IL-1β level in kidney: decreased
  IL-1β level in serum: decreased
[4]
  renal TNF-α level: significantly lower
  serum TNF-α level: significantly lower
[5]
  renal IL-6 level: significantly lower
  serum IL-6 level: significantly lower
[6]
  ASC protein expression in kidney: decreased significantly
[7]
  NLRP3 protein expression in kidney: decreased significantly
[8]
  caspase-1 protein expression in kidney: decreased significantly
[9]
  renal histopathology: glomerulus injury: a trend of recovery in the injury of the glomerulus
  renal histopathology: urate crystals: no urate crystals in the renal tubules
[10]
  UA level in HK-2 cells: suppressed
[11]
  NLRP3 in HK-2 cells: significantly reduced
[12]
  inhibitory effect on IL-1β in HK-2 cells: relatively weak
[13]
  TNF-α level in HK-2 cells: tended to decrease dose-dependently
[14]
  IL-6 level in HK-2 cells: tended to decrease dose-dependently
[15]
  XOD activity in AML12 cells: downregulated
[16]; 中 = gigantol 50 µmol/L
  xod / β (reference protein) ratio: 1.517 and 1.501 and 1.526
  xod protein expression, band value: 128.129 and 199.117 and 168.261
[16]; 低 = gigantol 25 µmol/L
  xod / β (reference protein) ratio: 1.791 and 1.55 and 1.796
  xod protein expression, band value: 141.242 and 241.421 and 177.271
[16]; 高 = gigantol 100 µmol/L
  xod / β (reference protein) ratio: 1.329 and 1.446 and 1.393
  xod protein expression, band value: 108.633 and 187.088 and 176.298
[16]
  XOD protein expression in AML12 cells: significantly decreased
[16]; listed as Gigantol
  XOD protein expression in AML12 cells: downregulated
[16]; listed as gigatol
  XOD protein expression in AML12 cells: significantly reduced in a dose-dependent manner
[17]
  F: 16.82%
  time of second peak of blood concentration: approximately 2 h
[18]; 中 = gigantol 50 µmol/L
  asc / β (reference protein) ratio: 0.7729 and 0.7908 and 0.8759
  asc protein expression, band value: 134.385 and 146.868 and 166.261
[18]; 低 = gigantol 25 µmol/L
  asc / β (reference protein) ratio: 0.9783 and 1.053 and 1.058
  asc protein expression, band value: 161.976 and 197.704 and 190.261
[18]; 高 = gigantol 100 µmol/L
  asc / β (reference protein) ratio: 0.7353 and 0.6853 and 0.7512
  asc protein expression, band value: 136.893 and 134.134 and 146.281
[18]; [24]
  ASC protein level in HK-2 cells: significantly reduced
[18]; [25]
  ASC protein level in HK-2 cells: decreased significantly
[19]; 中 = gigantol 50 µmol/L
  OAT3 / β (reference protein) ratio: 1.0464 and 0.924 and 0.8748
  OAT3 protein expression, band value: 181.929 and 171.604 and 166.063
[19]; 低 = gigantol 25 µmol/L
  OAT3 / β (reference protein) ratio: 0.8292 and 0.8811 and 0.9428
  OAT3 protein expression, band value: 137.293 and 165.504 and 169.481
[19]; 高 = gigantol 100 µmol/L
  OAT3 / β (reference protein) ratio: 0.9571 and 0.9652 and 1.021
  OAT3 protein expression, band value: 178.19 and 188.909 and 198.88
[19]; HUA cell model, 50 and 100 µmol/L, vs model group
  OAT3 protein level in HK-2 cells: significantly increased
[19]; HUA cell model, gigantol 25, 50, 100 µmol/L, dose-dependent
  OAT3 protein expression in HK-2 cells: increase
[20]; 中 = gigantol 50 µmol/L
  NLRP3 / β (reference protein) ratio: 0.7212 and 0.9246 and 0.7381
  NLRP3 protein expression, band value: 125.385 and 171.712 and 140.12
[20]; 低 = gigantol 25 µmol/L
  NLRP3 / β (reference protein) ratio: 0.7726 and 0.9621 and 1.043
  NLRP3 protein expression, band value: 127.912 and 180.721 and 187.495
[20]; 高 = gigantol 100 µmol/L
  NLRP3 / β (reference protein) ratio: 0.5752 and 0.7261 and 0.6462
  NLRP3 protein expression, band value: 107.093 and 142.123 and 125.837
[20]; 25 μmol/L gigantol, vs model group
  NLRP3 protein level in HK-2 cells: moderately reduced
[20]; [24]
  NLRP3 protein level in HK-2 cells: significantly reduced
[20]; [25]
  NLRP3 protein level in HK-2 cells: decreased significantly
[21]; 中 = gigantol 50 µmol/L
  CASPASE / β (reference protein) ratio: 0.976 and 0.8978 and 0.9502
  CASPASE protein expression, band value: 169.696 and 166.728 and 180.371
[21]; 低 = gigantol 25 µmol/L
  CASPASE / β (reference protein) ratio: 0.8128 and 1.007 and 1.064
  CASPASE protein expression, band value: 134.57 and 189.238 and 191.281
[21]; 高 = gigantol 100 µmol/L
  CASPASE / β (reference protein) ratio: 0.7864 and 0.8188 and 0.8437
  CASPASE protein expression, band value: 146.411 and 160.261 and 164.281
[21]; HUA cell model, gigantol 25, 50, 100 µmol/L, vs model group
  Caspase-1 protein level in HK-2 cells: significantly reduced; also recorded: decreased significantly
[22]
  OAT1 protein expression in kidney: increased
[23]; gigantol low-dose group (5 mg/kg)
  OAT3 protein expression in kidney: not in the low-dose group
[23]; gigantol medium-dose and high-dose groups (10, 20 mg/kg), p < 0.05
  OAT3 protein expression in kidney: increased
